Test results: patent publication US4315928A, “N-Aminosulfenyl carbamate compounds, compositions and use” (priority 1975, dated 1982)

Key:
[1] = test system: house flies (Musca domestica, L.); experiment: whole plant or invertebrate; settings: po, 24 h, read-out: Insect Toxicity, % Kill at 250 ppm, HF
corn = experiment: Phytotoxicity Test, corn; assay type: in vivo; parameters: key: A rating of 1 indicates no perceptible injury; ratings of 2, 3 and 4 indicate intermediate degrees of injury; ratings of 2, 3 and 4 indicate intermediate degrees of injury; ratings of 2, 3 and 4 indicate intermediate degrees of injury; 5 indicates the plant was dead; settings: ten days
Protocol: (§1) Suspensions of the test compounds were prepared by dissolving one gram of compound in 50 milliliters of acetone in which had been dissolved 0.1 gram (10 percent of the weight of compound) of an alkylphenoxy polyethoxyethanol surfactant, as an emulsifying or dispersing agent. The resulting solution was mixed into 150 milliliters of water to give roughly 200 milliliters of a suspension containing the compound in finely divided form. The thus-prepared stock suspension contained 0.5 percent by weight of compound. The test concentrations in parts per million by weight employed in the tests described hereinbelow were obtained by appropriate dilutions of the stock suspension with water. The test procedures were as follows:
(§2) Experiments were also conducted to determine the phytotoxicity of representative compositions with respect to healthy fresh plants. Solutions of the compounds were prepared as described above to provide a concentration of 2500 parts per million of the test compound. The test plants were sprayed in accordance with the procedure described above for the Mite Foliage Spray Test so as to deliver approximately 100 milliliters of test solution to the leaves of each plant tested. The sprayed plants and controls were set aside for approximately one hour to allow the solutions to dry and were then placed in the greenhouse. After ten days the plants were visually inspected to determine the extent of foliage injury. A rating of 1 indicates no perceptible injury; 5 indicates the plant was dead and ratings of 2, 3 and 4 indicate intermediate degrees of injury based upon the number and extent to which leaves were injured.

[2] = test system: Mexican bean beetle (Epilachna varivestis, Muls.); experiment: whole plant or invertebrate; settings: 72 h, read-out: Insect Toxicity, % Kill at 250 ppm, MBB
tomato = experiment: Phytotoxicity Test, tomato; assay type: in vivo; parameters: key: A rating of 1 indicates no perceptible injury; ratings of 2, 3 and 4 indicate intermediate degrees of injury; ratings of 2, 3 and 4 indicate intermediate degrees of injury; ratings of 2, 3 and 4 indicate intermediate degrees of injury; 5 indicates the plant was dead; settings: ten days
Protocol: as §1, §2

[3] = test system: bean aphid (Aphis fabae Scop.); experiment: whole plant or invertebrate; settings: foliar, 24 h, read-out: Insect Toxicity, % Kill at 250 ppm, BA
[4] = test system: two-spotted mite (Tetranychus urticae Koch); experiment: whole plant or invertebrate; settings: foliar, 144 h, read-out: Insect Toxicity, % Kill at 250 ppm, TSM
green beans = experiment: Phytotoxicity Test, green beans; assay type: in vivo; parameters: key: A rating of 1 indicates no perceptible injury; ratings of 2, 3 and 4 indicate intermediate degrees of injury; ratings of 2, 3 and 4 indicate intermediate degrees of injury; ratings of 2, 3 and 4 indicate intermediate degrees of injury; 5 indicates the plant was dead; settings: ten days
Protocol: as §1, §2

rat = experiment: in vivo; settings: oral, statement on Table I
Protocol: (§3) These compositions were also evaluated to determine their peroral toxicity to mammals by conventional methods. The animal selected for this experiment was the rat.

in vivo = settings: rat, in vivo, po
Protocol: as §3

soybeans = experiment: Phytotoxicity Test, soybeans; assay type: in vivo; parameters: key: A rating of 1 indicates no perceptible injury; ratings of 2, 3 and 4 indicate intermediate degrees of injury; ratings of 2, 3 and 4 indicate intermediate degrees of injury; ratings of 2, 3 and 4 indicate intermediate degrees of injury; 5 indicates the plant was dead; settings: ten days
Protocol: as §1, §2

cotton = experiment: Phytotoxicity Test, cotton; assay type: in vivo; parameters: key: A rating of 1 indicates no perceptible injury; ratings of 2, 3 and 4 indicate intermediate degrees of injury; ratings of 2, 3 and 4 indicate intermediate degrees of injury; ratings of 2, 3 and 4 indicate intermediate degrees of injury; 5 indicates the plant was dead; settings: ten days
Protocol: as §1, §2

[5] = test system: southern armyworm (Prodenia eridania, (Cram.)); experiment: whole plant or invertebrate; settings: Spodoptera eridania, 72 h, read-out: Insect Toxicity, % Kill at 250 ppm, SAW

Compound | mortality at 250 ppm [1] [%] | Crop Phytotoxicity, Injury Rating at 2500 ppm, CN (corn) | mortality at 250 ppm [2] [%] | Crop Phytotoxicity, Injury Rating at 2500 ppm, TOM (tomato) | mortality at 250 ppm [3] [%] | mortality at 250 ppm [4] [%] | Crop Phytotoxicity, Injury Rating at 2500 ppm, GB (green beans) | mammalian toxicity (in words) (rat) | LD50 (in vivo) [mg/kg] | Crop Phytotoxicity, Injury Rating at 2500 ppm, SOYBN. (soybeans) | Crop Phytotoxicity, Injury Rating at 2500 ppm, COT. (cotton) | mortality at 250 ppm [5] [%]
CSC(C)=NOC(=O)N(C)SN(C)C [Compound 11, S-Methyl N-[N'-Methyl-N'-(Dimethylaminosulfenyl)carbamoyloxy]thioacetimidate] | 100 | 1 | 100 | 2 | 100 | 50 | 1 | extremely low mammalian toxicity | 141 | 1 | 1 | 100
CSC(C)=NOC(=O)N(C)SN1CCCCC1 [Compound 12, S-Methyl-N-[N'-Methyl-N'-(1-Piperidinosulfenyl)Carbamoyloxy]Thioacetimidate] | 100 | 1 | 100 | 1 | 100 | 100 | 1 | extremely low mammalian toxicity | 141 | 1 | 1 | 100
CCN(CC)SN(C)C(=O)ON=C(C)SC [Compound 17] | 100 | 2 | 100 | 1 | 100 | 80 | 2 | extremely low mammalian toxicity | 178 | 2 | 2 | 100
CCCCN(CCCC)SN(C)C(=O)ON=C(C)SC [Compound 28, S-Methyl N-[N'-Methyl-N'-(Di-n-butylaminosulfenyl)Carbamoyloxy]-Thioacetimidate] | 100 | 1 | 100 | 1 | 100 | 50 | 1 | extremely low mammalian toxicity | 317 | 1 | 1 | 100
